Results from patent publication US20250115581A1, “SUBSTITUTED PIPERIDINES AS CK1A DEGRADERS” (Monte Rosa Therapeutics, Inc., priority 2022, published 2025).

Legend:
[1] = molecular target: T1, CK1α (Homo sapiens, UniProt P48729+Q96SW2); test: CK1α NanoBit Assay (HiBiT-tagged CSNK1A1 in HEK293 cells, luminescence); assay type: cell-based; conditions: 24 h
T1 construct: HEK293 clonal lines with CRISPR KI HiBiT tag on CSNK1A1; host or cells: HEK293 clonal line, CRISPR knock-in HiBiT at the CSNK1A1 locus, stably expressing LgBiT
Protocol: HEK293 clonal lines with CRISPR KI HiBiT tag on CSNK1A1 and stably expressing LgBiT protein were obtained from Promega (Madison, WI). Cells were plated at 5000 cells per well using Multiflo (BioTek) in 384-well white solid bottom plates (Corning, 3570BC) in 25 μl volume in DMEM media (DMEM, high glucose, HEPES, no phenol red (ThermoFisher Scientific, 21063029)) containing 10% FBS (Corning, 35-075-CV), 1% Penicillin/Streptomycin ((ThermoFisher Scientific, 15140-122), and 0.2% Endurazine (Nano-Glo Endurazine Live Cell Substrate (Promega, N2571)). Cells were incubated for 16 hours at 37° C., 5% CO2. Depending on experiment 25 or 75 nL of a compound at 10 mM were added into the plate using an Echo® 650 liquid handler (Labcyte) to achieve final concentration of 10 or 30 μM in wells. Cells were incubated at 37° C., 5% CO2 for 24 hours and then signal was read on a Pherastar FSX using “LUM plus” optic module.
Data analysis was performed in Scinamic (Scinamic, Cambridge, MA). Luminescence response (R) was calculated by the formula: response=100*(S−N)/(P−N) where S is the signal of the well, N and P the mean negative and positive control values respectively of the same plate. The luminescence response was then fitted in Scinamic using a 3-parameter agonist logistic fit (hillslope=1, EC50>0, top/bottom unconstrained).
DC50 data are reported in Table 2 for compounds in Table 1. In Table 2 below, According to the code, A represents a DC50 value of ≤0.1 μM, B represents a DC50 value >0.1 μM and ≤1 μM, C represents an DC50 value >1 μM.

[2] = molecular target: CRBN/DDB1 (Homo sapiens, UniProt Q96SW2); test: HTRF binding assay (displacement of Cy5-thalidomide probe from CRBN/DDB1); conditions: CRBN/DDB1 2.5 nM, Cy5-Thalidomide 100 nM, 30 min; geometric mean; read-out: HTRF_Thali_Disp_DR_geo_IC50
Excerpt: Binding of test compounds to CRBN/DDB1 was monitored in an HTRF assay using 1-[5-({2-[2-(2-{[2-(2,6-dioxopiperidin-3-yl)-1,3-dioxo-2,3-dihydro-1H-isoindol-4-yl]oxy}acetamido)ethoxy]ethyl}carbamoyl)pentyl]-3,3-dimethyl-2-[(1E,3E)-5-[(2E)-1,3,3-trimethyl-5-sulfo-2,3-dihydro-1H-indol-2-ylidene]penta-1,3-dien-1-yl]-3H-indol-1-ium-5-sulfonate as a fluorescent probe. In this assay, compounds displace the fluorescently labeled thalidomide-based probe bound to CRBN and fluorescence is monitored with increasing compound concentration. Assays were conducted in Greiner white 384 well HiBase plates (Cat. No 784075-25) in 10 μL total volume. A one pot detection solution of CRBN/DDB1 (2.5 nM), anti-His Terbium Cryptate Gold (1×, PerkinElmer Cat. #: 61HI2TLB), and Cy5-Thalidomide (100 nM, Tenova Cat.: T52461) was prepared in 20 mM HEPES, 20 mM NaCl, 0.2 mM TCEP, 0.2 mM EDTA, and 0.005% Tween20 was dispensed to each assay plate. Test compounds were stored in dry, ambient temperatures at 10 mM. A 10-point, 1:3 dilution series was prepared from 10 mM stock concentrations in Echo-compatible LDV plates. 10 nL of each compound dilution series was dispensed into assays wells using an Echo 650 (Labcyte inc. USA). 10 nL of 10 mM lenalidomide (Selleckchem Cat no. S1029) was transferred into the active-control wells for the assay and 10 nL of DMSO was transferred into the negative control wells. The assay was then allowed to incubate for 30 min at ambient temperature after transferring the test compounds. Plate measurements were taken on a Pherastar FSX (BMG Labtech, Germany) using the HTRF Red filter (Ex. 337 nm, em1: 620 nm, em2: 665 nm) (Flashes: 50, Integration time: 60-400 μs, Z-height: 10 mm, Ratio-multiplier: 10,000). Analysis, HTRF ratio and IC50 values were derived using KNIME analytics (KNIME Zurich) transformation and fitting within Collaborative Drug Discovery (Collaborative Drug Discovery USA) using a 4-parameter logistic fit. HTRF ratio calculation was performed using the following formula: […]
where em665 nm represents the measured emission at 665 nm upon excitation at 337 nm and em620 nm the measured emission at 620 nm upon excitation at 337 nm. The 4 parameter logistic fitting model was performed using the following formula: […]
where Y represents the HTRF ratio response (as defined previously), X the compound concentration in μM, Ymin the minimum response plateau, Ymax the maximum response plateau, IC50 the concentration of […] that gives a response half way between Ymin and Ymax and HillSlope the steepness of the family of curves. No fitting model constraints was applied on Ymin, or Ymax whilst IC50>0 and −0.5>HillSlope>−3 Cheng-Prusoff transformation
Ki values were derived from the geometric mean of the IC50 values using the Cheng-Prusoff transformation:
where [L] represents the concentration of fluorescent probe in […], Kd the affinity (binding constant) of the fluorescent probe in units of μM and IC50 the concentration of agonist that gives a response halfway between Ymin and Ymax (as described in 1.2.1)
Analysis and IC50 values were derived using KNIME analytics (KNIME, Zurich) transformation and fitting within Collaborative Drug Discovery (Collaborative Drug Discovery, USA) as described in 1.2.1. Ki values were derived from the geometric mean of the IC50 values using the Cheng-Prusoff transformation as described in 2.2.2. Data was visualized in GraphPad Prism 8.1.2 (GraphPad, USA) and reported as mean and standard deviation. Microsoft Office Excel 2012 (Redmond, WA) was used for calculation of mean and standard deviation.
IC50 data are reported in Table 3 for compounds in Table 1. In Table 3 below, According to the code, A represents a IC50 value of ≤0.1 μM, B represents a IC50 value >0.1 μM and ≤1 μM, C represents an IC50 value >1 μM.

Sequence of CRBN/DDB1 (Q96SW2 whole entry): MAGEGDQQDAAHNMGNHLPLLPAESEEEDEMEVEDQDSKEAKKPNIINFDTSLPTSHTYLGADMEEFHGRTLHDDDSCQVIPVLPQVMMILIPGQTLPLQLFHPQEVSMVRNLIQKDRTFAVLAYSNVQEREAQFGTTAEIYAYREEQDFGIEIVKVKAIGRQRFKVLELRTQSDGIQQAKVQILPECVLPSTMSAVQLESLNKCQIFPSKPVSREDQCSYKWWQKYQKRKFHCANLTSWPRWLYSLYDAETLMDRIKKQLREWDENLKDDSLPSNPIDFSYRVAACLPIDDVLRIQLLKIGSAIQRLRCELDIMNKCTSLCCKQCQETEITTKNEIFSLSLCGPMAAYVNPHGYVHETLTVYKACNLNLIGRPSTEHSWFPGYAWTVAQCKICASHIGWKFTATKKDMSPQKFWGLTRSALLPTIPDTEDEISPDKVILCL
Sequence of CRBN/DDB1 (Q16531 whole entry partner): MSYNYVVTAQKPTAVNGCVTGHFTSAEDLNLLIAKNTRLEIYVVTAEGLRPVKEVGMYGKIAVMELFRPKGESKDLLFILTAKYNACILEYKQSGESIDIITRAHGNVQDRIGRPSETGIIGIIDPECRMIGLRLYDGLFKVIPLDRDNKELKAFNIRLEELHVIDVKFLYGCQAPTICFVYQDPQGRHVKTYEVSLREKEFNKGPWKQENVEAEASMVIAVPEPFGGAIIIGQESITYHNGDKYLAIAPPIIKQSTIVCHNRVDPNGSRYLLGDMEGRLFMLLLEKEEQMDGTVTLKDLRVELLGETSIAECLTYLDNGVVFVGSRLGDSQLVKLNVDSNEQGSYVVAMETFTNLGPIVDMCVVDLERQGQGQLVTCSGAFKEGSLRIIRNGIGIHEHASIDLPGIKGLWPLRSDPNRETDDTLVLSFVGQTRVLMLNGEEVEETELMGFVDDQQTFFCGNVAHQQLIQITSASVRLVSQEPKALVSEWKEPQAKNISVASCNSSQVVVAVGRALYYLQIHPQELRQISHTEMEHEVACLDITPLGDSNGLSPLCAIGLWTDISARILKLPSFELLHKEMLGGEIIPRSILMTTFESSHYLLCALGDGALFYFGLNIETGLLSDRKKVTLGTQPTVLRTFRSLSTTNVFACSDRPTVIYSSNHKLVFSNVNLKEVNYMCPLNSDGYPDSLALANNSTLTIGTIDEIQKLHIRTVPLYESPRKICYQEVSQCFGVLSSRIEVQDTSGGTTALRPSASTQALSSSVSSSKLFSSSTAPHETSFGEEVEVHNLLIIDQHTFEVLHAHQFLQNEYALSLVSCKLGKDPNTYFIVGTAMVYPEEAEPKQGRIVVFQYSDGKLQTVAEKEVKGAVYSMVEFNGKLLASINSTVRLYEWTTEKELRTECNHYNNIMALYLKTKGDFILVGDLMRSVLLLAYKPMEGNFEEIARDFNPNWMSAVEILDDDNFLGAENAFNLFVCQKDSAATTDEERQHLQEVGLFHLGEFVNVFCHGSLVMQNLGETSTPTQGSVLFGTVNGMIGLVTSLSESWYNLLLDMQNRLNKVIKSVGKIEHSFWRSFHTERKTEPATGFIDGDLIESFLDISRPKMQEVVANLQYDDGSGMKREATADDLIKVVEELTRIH
T1 sequence (P48729 whole entry): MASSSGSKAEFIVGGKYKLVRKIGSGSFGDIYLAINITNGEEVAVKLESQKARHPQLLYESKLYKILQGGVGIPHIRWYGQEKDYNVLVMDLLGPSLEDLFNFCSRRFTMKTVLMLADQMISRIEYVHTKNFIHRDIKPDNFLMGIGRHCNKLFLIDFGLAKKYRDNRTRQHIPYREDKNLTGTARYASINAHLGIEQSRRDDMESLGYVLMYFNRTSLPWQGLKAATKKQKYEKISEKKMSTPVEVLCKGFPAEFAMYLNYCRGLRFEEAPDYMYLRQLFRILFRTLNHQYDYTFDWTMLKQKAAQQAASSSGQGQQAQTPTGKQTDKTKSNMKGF
T1 sequence (Q96SW2 whole entry): as the sequence (Q96SW2 whole entry) above
T1 sequence (Q16531 whole entry partner): as the sequence (Q16531 whole entry partner) above

| SMILES | DC50 [1] [µM] | IC50 [2] [µM] |
| --- | --- | --- |
| COCc1ccccc1N1CCN(c2ccc3c(c2)CN(C2CCC(=O)NC2=O)C3=O)C1=O (stereo not shown) [Compound 168, 3-(5-(3-(2-(methoxymethyl)phenyl)-2-oxoimidazolidin-1-yl)-1-oxoisoindolin-2-yl)piperidine-2,6-dione] | 0.1 to 1 | 0.1 to 1 |
| Cc1ccccc1N1C(=O)N(c2ccc3c(c2)CN(C2CCC(=O)NC2=O)C3=O)C[C@H]1C (stereo partly drawn) [Compound 167, 3-(5-((R)-4-methyl-2-oxo-3-(o-tolyl)imidazolidin-1-yl)-1-oxoisoindolin-2-yl)piperidine-2,6-dione] | 0.1 to 1 | 0.1 to 1 |
| O=C1CCC(N2Cc3cc(N4CC5(CC5)N(c5ccccc5)C4=O)ccc3C2=O)C(=O)N1 (stereo not shown) [Compound 152, 3-(1-oxo-5-(5-oxo-4-phenyl-4,6-diazaspiro[2.4]heptan-6-yl)isoindolin-2-yl)piperidine-2,6-dione] | ≤ 0.1 | 0.1 to 1 |
| COCc1ccc(N2C(=O)N(c3ccc4c(c3)CN(C3CCC(=O)NC3=O)C4=O)C[C@H]2C)cc1 (stereo partly drawn) [Compound 134, 3-(5-((R)-3-(4-(methoxymethyl)phenyl)-4-methyl-2-oxoimidazolidin-1-yl)-1-oxoisoindolin-2-yl)piperidine-2,6-dione] | ≤ 0.1 | 0.1 to 1 |
| CN1Cc2cccc(N3CCN(c4ccc5c(c4)CN(C4CCC(=O)NC4=O)C5=O)C3=O)c2C1 (stereo not shown) [Compound 172, 3-(5-(3-(2-methylisoindolin-4-yl)-2-oxoimidazolidin-1-yl)-1-oxoisoindolin-2-yl)piperidine-2,6-dione] | > 1 | ≤ 0.1 |
| O=C1CCC(N2Cc3cc(N4CCN(C5CC6(CCC6)C5)C4=O)ccc3C2=O)C(=O)N1 (stereo not shown) [Compound 153, 3-(1-oxo-5-(2-oxo-3-(spiro[3.3]heptan-2-yl)imidazolidin-1-yl)isoindolin-2-yl)piperidine-2,6-dione] | 0.1 to 1 | 0.1 to 1 |
| CC1C(C)N(c2ccc3c(c2)CN(C2CCC(=O)NC2=O)C3=O)C(=O)N1c1ccccc1 (stereo not shown) [Compound 113, 3-(5-(4,5-dimethyl-2-oxo-3-phenylimidazolidin-1-yl)-1-oxoisoindolin-2-yl)piperidine-2,6-dione] | > 1 | 0.1 to 1 |
| CN1CCCC1c1ccc(N2CCN(c3ccc4c(c3)CN(C3CCC(=O)NC3=O)C4=O)C2=O)cc1 (stereo not shown) [Compound 177, 3-(5-(3-(4-(1-methylpyrrolidin-2-yl)phenyl)-2-oxoimidazolidin-1-yl)-1-oxoisoindolin-2-yl)piperidine-2,6-dione] | > 1 | 0.1 to 1 |
| O=C1CCC(N2Cc3cc(N4CCN(c5ccc(C6CCC6)cc5)C4=O)ccc3C2=O)C(=O)N1 (stereo not shown) [Compound 131, 3-(5-(3-(4-cyclobutylphenyl)-2-oxoimidazolidin-1-yl)-1-oxoisoindolin-2-yl)piperidine-2,6-dione] | ≤ 0.1 | > 1 |
| COC[C@H]1CN(c2ccc3c(c2)CN(C2CCC(=O)NC2=O)C3=O)C(=O)N1c1ccc(C)cc1 (stereo partly drawn) [Compound 157, 3-(5-((R)-4-(methoxymethyl)-2-oxo-3-(p-tolyl)imidazolidin-1-yl)-1-oxoisoindolin-2-yl)piperidine-2,6-dione] | 0.1 to 1 | 0.1 to 1 |
| O=C1CCC(N2Cc3cc(N4CCN(C5CC5)C4=O)ccc3C2=O)C(=O)N1 (stereo not shown) [Compound 164, 3-[5-(3-cyclopropyl-2-oxo-imidazolidin-1-yl)-1-oxo-isoindolin-2-yl]piperidine-2,6-dione] | 0.1 to 1 | 0.1 to 1 |
| COc1ccc(-n2ccn(-c3ccc4c(c3)CN(C3CCC(=O)NC3=O)C4=O)c2=O)cc1 (stereo not shown) [Compound 102, 3-(5-(3-(4-methoxyphenyl)-2-oxo-2,3-dihydro-1H-imidazol-1-yl)-1-oxoisoindolin-2-yl) piperidine-2,6-dione] | > 1 | 0.1 to 1 |
| O=C1CCC(N2Cc3cc(N4CCN(C5C6CCCC65)C4=O)ccc3C2=O)C(=O)N1 (stereo not shown) [Compound 160, 3-(5-(3-(bicyclo[3.1.0]hexan-6-yl)-2-oxoimidazolidin-1-yl)-1-oxoisoindolin-2-yl)piperidine-2,6-dione] | 0.1 to 1 | 0.1 to 1 |

Now from value to compound:

| DC50 [1] [µM] | IC50 [2] [µM] | SMILES |
| --- | --- | --- |
| ≤ 0.1 | > 1 | O=C1CCC(N2Cc3cc(N4CCN(c5ccccn5)C4=O)ccc3C2=O)C(=O)N1 (stereo not shown) [Compound 105, 3-(1-oxo-5-(2-oxo-3-(pyridin-2-yl)imidazolidin-1-yl)isoindolin-2-yl)piperidine-2,6-dione] |
| > 1 | ≤ 0.1 | CC(C)C(=O)c1ccc(N2CCN(c3ccc4c(c3)CN(C3CCC(=O)NC3=O)C4=O)C2=O)cc1 (stereo not shown) [Compound 181, 3-(5-(3-(4-isobutyrylphenyl)-2-oxoimidazolidin-1-yl)-1-oxoisoindolin-2-yl)piperidine-2,6-dione] |
| ≤ 0.1 | > 1 | CC1(c2ccc(N3CCN(c4ccc5c(c4)CN(C4CCC(=O)NC4=O)C5=O)C3=O)cc2)CC1 (stereo not shown) [Compound 135, 3-(5-(3-(4-(1-methylcyclopropyl)phenyl)-2-oxoimidazolidin-1-yl)-1-oxoisoindolin-2-yl)piperidine-2,6-dione] |
| ≤ 0.1 | 0.1 to 1 | O=C1CCC(N2Cc3cc(N4CCN(c5cccc(C(F)(F)F)c5)C4=O)ccc3C2=O)C(=O)N1 (stereo not shown) [Compound 116, 3-(1-oxo-5-(2-oxo-3-(3-(trifluoromethyl)phenyl)imidazolidin-1-yl)isoindolin-2-yl)piperidine-2,6-dione] |
| 0.1 to 1 | 0.1 to 1 | CC(c1ccccc1)N1CCN(c2ccc3c(c2)CN(C2CCC(=O)NC2=O)C3=O)C1=O (stereo not shown) [Compound 154, 3-(1-oxo-5-(2-oxo-3-(1-phenylethyl)imidazolidin-1-yl)isoindolin-2-yl)piperidine-2,6-dione] |
| ≤ 0.1 | 0.1 to 1 | O=C1CCC(N2Cc3cc(N4CCN(c5ccc(Cl)cc5)C4=O)ccc3C2=O)C(=O)N1 (stereo not shown) [Compound 114] |
| ≤ 0.1 | 0.1 to 1 | CC(C)c1cccc(N2CCN(c3ccc4c(c3)CN(C3CCC(=O)NC3=O)C4=O)C2=O)c1 (stereo not shown) [Compound 119, 3-(5-(3-(3-isopropylphenyl)-2-oxoimidazolidin-1-yl)-1-oxoisoindolin-2-yl)piperidine-2,6-dione] |
